Reference: PubChem BioAssay (NCI)
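Five compound concentrations were applied to cells in 96-well plates for 48 hours; endpoints were derived by simple linear interpolation of the resulting dose-response curve. Here, GI50 denotes the concentration required for 50% inhibition of growth. At the TGI there is no net growth.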

Assays:
Experiment in all cases: growth of human tumour cells (NCI), 48 h
ACHN renal = system: ACHN renal
OVCAR-4 ovarian = system: OVCAR-4 ovarian
K-562 leukemia = system: K-562 leukemia
SN12C renal = system: SN12C renal
MALME-3M melanoma = system: MALME-3M melanoma
MDA-MB-231 breast = system: MDA-MB-231 breast
KM12 colon = system: KM12 colon
A549 NSCLC = system: A549 NSCLC
CAKI-1 renal = system: CAKI-1 renal
HOP-62 NSCLC = system: HOP-62 NSCLC
LOX IMVI melanoma = system: LOX IMVI melanoma
NCI-H522 lung = system: NCI-H522 lung
NCI-H226 lung = system: NCI-H226 lung
CCRF-CEM leukemia = system: CCRF-CEM leukemia

Compound: CCCCCCCCCCCCC(O)C1CCC(C(O)CCCCCCC(O)CCCCCCCC2=CC(C)OC2=O)O1 (stereo not given)
- GI50 (ACHN renal): 18.9 µM
- TGI (ACHN renal): > 100 µM
- TGI (OVCAR-4 ovarian): > 100 µM
- TGI (K-562 leukemia): 40.6 µM
- TGI (SN12C renal): 83.1 µM
- TGI (MALME-3M melanoma): 56.7 µM
- TGI (MDA-MB-231 breast): > 100 µM
- TGI (KM12 colon): > 100 µM
- GI50 (A549 NSCLC): 21.7 µM
- TGI (A549 NSCLC): > 100 µM
- TGI (CAKI-1 renal): 71.9 µM
- TGI (HOP-62 NSCLC): > 100 µM
- TGI (LOX IMVI melanoma): 39.8 µM
- TGI (NCI-H522 lung): 56.9 µM
- TGI (NCI-H226 lung): > 100 µM
- GI50 (CCRF-CEM leukemia): 15.4 µM
- TGI (CCRF-CEM leukemia): 79.9 µM

Compound: O=C1c2c(ccc3c2CCC3)CC12Cc1cc3c(cc1C2)CCC3
- TGI (ACHN renal): > 100 µM
- TGI (OVCAR-4 ovarian): > 100 µM
- TGI (K-562 leukemia): > 100 µM
- TGI (SN12C renal): > 100 µM
- TGI (MALME-3M melanoma): > 100 µM
- TGI (MDA-MB-231 breast): > 100 µM
- TGI (KM12 colon): > 100 µM
- TGI (A549 NSCLC): > 100 µM
- TGI (CAKI-1 renal): > 100 µM
- TGI (HOP-62 NSCLC): > 100 µM
- TGI (LOX IMVI melanoma): > 100 µM
- TGI (NCI-H522 lung): > 100 µM
- TGI (NCI-H226 lung): > 100 µM
- TGI (CCRF-CEM leukemia): > 100 µM

Compound: CCCCCCCCC/C=C1\CC(CO)(COC(=O)C2CCCCC2)OC1=O (stereo not given)
- TGI (ACHN renal): 69.1 µM
- TGI (OVCAR-4 ovarian): 49.3 µM
- TGI (K-562 leukemia): > 100 µM
- TGI (SN12C renal): 35.2 µM
- TGI (MALME-3M melanoma): 31.9 µM
- TGI (MDA-MB-231 breast): 44.8 µM
- TGI (KM12 colon): 38.9 µM
- TGI (A549 NSCLC): 48.3 µM
- TGI (CAKI-1 renal): 49.3 µM
- TGI (HOP-62 NSCLC): 27.9 µM
- TGI (LOX IMVI melanoma): 24 µM
- TGI (NCI-H522 lung): 34.6 µM
- TGI (NCI-H226 lung): 74.4 µM
- TGI (CCRF-CEM leukemia): 63.2 µM

Compound: C=C(Br)CN(C(C)=O)C1CCCCC1
- TGI (ACHN renal): > 100 µM
- TGI (OVCAR-4 ovarian): > 100 µM
- TGI (K-562 leukemia): > 100 µM
- TGI (SN12C renal): > 100 µM
- TGI (MALME-3M melanoma): > 100 µM
- TGI (MDA-MB-231 breast): > 100 µM
- TGI (KM12 colon): > 100 µM
- TGI (A549 NSCLC): > 100 µM
- TGI (CAKI-1 renal): > 100 µM
- TGI (HOP-62 NSCLC): > 100 µM
- TGI (LOX IMVI melanoma): > 100 µM
- TGI (NCI-H522 lung): > 100 µM
- TGI (NCI-H226 lung): > 100 µM
- TGI (CCRF-CEM leukemia): > 100 µM

Compound: NC(N)=N/N=C/c1c(-c2ccc([N+](=O)[O-])cc2)nc2n1CCS2
- TGI (ACHN renal): 30.7 µM
- TGI (OVCAR-4 ovarian): 27.7 µM
- TGI (K-562 leukemia): 22.6 µM
- TGI (SN12C renal): 19.2 µM
- TGI (MALME-3M melanoma): 36.6 µM
- TGI (MDA-MB-231 breast): 16 µM
- TGI (KM12 colon): 21.7 µM
- TGI (A549 NSCLC): 36.2 µM
- TGI (CAKI-1 renal): 34.4 µM
- TGI (HOP-62 NSCLC): 61.5 µM
- TGI (LOX IMVI melanoma): 35 µM
- TGI (NCI-H522 lung): 29.4 µM
- TGI (NCI-H226 lung): 42.9 µM
- TGI (CCRF-CEM leukemia): 11.8 µM

Compound: COc1cc(C2c3cc4c(cc3OC(Nc3ccccc3)C2C)OCO4)cc(OC)c1OC (stereo not given)
- TGI (ACHN renal): > 61.4 µM
- TGI (OVCAR-4 ovarian): > 100 µM
- TGI (K-562 leukemia): > 100 µM
- TGI (SN12C renal): > 100 µM
- TGI (MALME-3M melanoma): > 100 µM
- TGI (MDA-MB-231 breast): > 52.4 µM
- TGI (KM12 colon): > 100 µM
- TGI (A549 NSCLC): > 100 µM
- TGI (CAKI-1 renal): > 100 µM
- TGI (HOP-62 NSCLC): 9.89 µM
- TGI (LOX IMVI melanoma): > 100 µM
- TGI (NCI-H522 lung): 2.04 µM
- TGI (NCI-H226 lung): 12.8 µM
- TGI (CCRF-CEM leukemia): > 19.9 µM

Compound: COc1ccc(NC(C)=O)cc1C1CCC(=O)N1 (stereo not given)
- TGI (ACHN renal): > 100 µM
- TGI (OVCAR-4 ovarian): > 100 µM
- TGI (K-562 leukemia): > 100 µM
- TGI (SN12C renal): > 100 µM
- TGI (MALME-3M melanoma): > 100 µM
- TGI (MDA-MB-231 breast): > 100 µM
- TGI (KM12 colon): > 100 µM
- TGI (A549 NSCLC): > 100 µM
- TGI (CAKI-1 renal): > 100 µM
- TGI (HOP-62 NSCLC): > 100 µM
- TGI (LOX IMVI melanoma): > 100 µM
- TGI (NCI-H522 lung): > 100 µM
- TGI (NCI-H226 lung): > 100 µM
- TGI (CCRF-CEM leukemia): > 100 µM

Compound: COc1c2ccccc2c(OC)c2nc(C)ccc12
- TGI (ACHN renal): > 100 µM
- TGI (OVCAR-4 ovarian): > 100 µM
- TGI (K-562 leukemia): > 78.6 µM
- TGI (SN12C renal): > 100 µM
- TGI (MALME-3M melanoma): > 100 µM
- TGI (MDA-MB-231 breast): > 100 µM
- TGI (KM12 colon): > 100 µM
- TGI (A549 NSCLC): > 100 µM
- TGI (CAKI-1 renal): > 100 µM
- TGI (HOP-62 NSCLC): > 100 µM
- TGI (LOX IMVI melanoma): 56.1 µM
- TGI (NCI-H522 lung): > 100 µM
- TGI (NCI-H226 lung): > 100 µM
- TGI (CCRF-CEM leukemia): 71.6 µM

Compound: COc1cc(NCc2ccc3nc(OC)c(OC)nc3c2)cc(OC)c1OC
- TGI (ACHN renal): > 100 µM
- TGI (OVCAR-4 ovarian): > 100 µM
- TGI (K-562 leukemia): > 100 µM
- TGI (SN12C renal): > 100 µM
- TGI (MALME-3M melanoma): > 100 µM
- TGI (MDA-MB-231 breast): > 100 µM
- TGI (KM12 colon): > 100 µM
- TGI (A549 NSCLC): > 100 µM
- TGI (CAKI-1 renal): > 100 µM
- TGI (HOP-62 NSCLC): > 100 µM
- TGI (LOX IMVI melanoma): > 100 µM
- TGI (NCI-H522 lung): > 100 µM
- TGI (NCI-H226 lung): > 100 µM
- TGI (CCRF-CEM leukemia): > 100 µM

Compound: CCOC(=O)/C(C#N)=C1\c2c([nH]c(=S)[nH]c2=O)Oc2ccc3ccccc3c21
- TGI (ACHN renal): > 100 µM
- TGI (OVCAR-4 ovarian): > 100 µM
- TGI (K-562 leukemia): > 100 µM
- TGI (SN12C renal): > 100 µM
- TGI (MALME-3M melanoma): > 100 µM
- TGI (MDA-MB-231 breast): > 100 µM
- TGI (KM12 colon): > 100 µM
- TGI (A549 NSCLC): > 100 µM
- TGI (CAKI-1 renal): > 100 µM
- TGI (HOP-62 NSCLC): > 100 µM
- TGI (LOX IMVI melanoma): > 100 µM
- TGI (NCI-H522 lung): 54.5 µM
- TGI (NCI-H226 lung): > 100 µM
- TGI (CCRF-CEM leukemia): 4.26 µM

Compound: OC(C/C(=N\N1CCCCC1)c1cccs1)(C(F)(F)F)C(F)(F)F
- TGI (ACHN renal): > 10 µM
- TGI (OVCAR-4 ovarian): > 10 µM
- TGI (K-562 leukemia): > 10 µM
- TGI (SN12C renal): > 10 µM
- TGI (MALME-3M melanoma): > 10 µM
- TGI (MDA-MB-231 breast): > 10 µM
- TGI (KM12 colon): > 10 µM
- TGI (A549 NSCLC): > 10 µM
- TGI (CAKI-1 renal): > 10 µM
- TGI (HOP-62 NSCLC): > 10 µM
- TGI (LOX IMVI melanoma): > 10 µM
- TGI (NCI-H522 lung): > 10 µM
- TGI (NCI-H226 lung): > 10 µM
- TGI (CCRF-CEM leukemia): > 10 µM

Compound: CC(=O)OCC1OC(N2C(C)=C(C(C)=O)C(c3ccco3)C(C#N)=C2S)C(OC(C)=O)C(OC(C)=O)C1OC(C)=O (stereo not given)
- TGI (ACHN renal): > 100 µM
- TGI (OVCAR-4 ovarian): > 100 µM
- TGI (K-562 leukemia): > 100 µM
- TGI (SN12C renal): > 100 µM
- TGI (MALME-3M melanoma): > 100 µM
- TGI (MDA-MB-231 breast): > 100 µM
- TGI (KM12 colon): > 100 µM
- TGI (A549 NSCLC): > 100 µM
- TGI (CAKI-1 renal): > 100 µM
- TGI (HOP-62 NSCLC): > 100 µM
- TGI (LOX IMVI melanoma): > 100 µM
- TGI (NCI-H522 lung): > 100 µM
- TGI (NCI-H226 lung): > 100 µM
- TGI (CCRF-CEM leukemia): > 100 µM

Compound: O=C(O)c1ccc(Nc2nc3ccccc3nc2-c2cccs2)cc1
- TGI (ACHN renal): > 100 µM
- TGI (OVCAR-4 ovarian): > 100 µM
- TGI (K-562 leukemia): > 100 µM
- TGI (SN12C renal): > 100 µM
- TGI (MALME-3M melanoma): > 100 µM
- TGI (MDA-MB-231 breast): > 100 µM
- TGI (KM12 colon): > 100 µM
- TGI (A549 NSCLC): > 100 µM
- TGI (CAKI-1 renal): > 100 µM
- TGI (HOP-62 NSCLC): > 100 µM
- TGI (LOX IMVI melanoma): > 100 µM
- TGI (NCI-H522 lung): > 100 µM
- TGI (NCI-H226 lung): > 100 µM
- TGI (CCRF-CEM leukemia): > 100 µM
